In patent publication US20210355450A1, “CERVICAL CANCER ORGANOIDS” (Max-Planck-Gesellschaft zur Förderung der Wissenschaften …, priority 2018, published 2021):
“Also recorded” adds a separate entry of the source.

Experiments:
[1] = test system: human ectocervical organoids; assay: Human ectocervical organoid culture: formation, growth, differentiation; type: cell-based; conditions: for formation and expansion of squamous stratified organoids from single ectocervical stem cells: Wnt3a and RSPO1 together present in culture medium, human
Method: The medium consisted of ADF, 12 mM HEPES and 1% GlutaMax, supplemented with 1% B27, 1% N2, 0.5 μg/ml hydrocortisone (Sigma, #H0888-1G), 10 ng/ml human EGF (Invitrogen, #PHG0311), 100 ng/ml human noggin (Peprotech; #120-10C), 100 ng/ml human FGF-10 (Peprotech, #100-26-25), 1.25 mM N-acetyl-L-cysteine, 10 mM nicotinamide, 2 μM TGF-β R kinase Inhibitor IV, 10 μM ROCK inhibitor (Y-27632), 10 μM forskolin (Sigma, F6886) and 1% penicillin/streptomycin.
(§1) Cells isolated from tissue or the stem cells grown in 2D culture were mixed with 50 μl of ice cold Matrigel (BD, #356231) at a density of 20,000 cells, and the Matrigel droplet was placed in a pre-warmed 24-well plate and allowed to polymerize for 10 min at 37° C. The Matrigel droplet was then overlaid with 500 μl of pre-warmed human ecto- or endocervical medium. Cultures were kept at 37° C., 5% CO2 in a humidified incubator for 2-3 weeks and medium replaced every four days. For passaging the organoids, Matrigel was first dissolved by adding 1 ml of ice cold ADF and pipetting up and down 5 times. Organoids were collected in a 15 ml Falcon tube and a further 4 ml of ice cold ADF medium was added and organoids resuspended well to completely dissolve the Matrigel, followed by centrifugation at 300×g for 5 mins at 4° C. Medium was discarded and the ectocervical and mouse organoids were incubated with 1 ml of TrypLE Express for 30 min at 37° C. followed by mechanical fragmentation using a fire-polished glass Pasteur pipette by vigorous pipetting (8-10 times) to generate single cells. The single cells were then seeded at a 1:10 ratio back into Matrigel for expanding and culturing. Endocervical organoids were subjected to mechanical fragmentation as described above after centrifugation to generate fragments that were seeded back into Matrigel at 1:5 ratio. Matrigel was allowed to polymerize for 10 min at 37° C., overlaid with pre-warmed medium and cultured as described above.
(§2) Stem cells were counted and a defined number resuspended in 50 μl of Matrigel to generate organoids as described above. Between 2-3 weeks after plating images were taken of the whole well and the number and area of organoids formed were determined using ImageJ to calculate organoid forming efficiency.
Organoids were washed with cold PBS five times to remove Matrigel before fixing with 4% paraformaldehyde for 1 h at room temperature (RT) followed by washing with PBS twice. Organoids were then subjected to dehydration in an ascending ethanol series followed by isopropanol and acetone for 20 min each. The dehydrated organoids were paraffin embedded and 5 μm sections cut on a Microm HM 315 microtome. Mouse and human tissues were extensively washed with PBS and fixed using 4% PFA overnight at RT. Samples were subjected to dehydration in an ascending ethanol series followed by isopropanol and xylene (60 mins each) followed by paraffinization using a Leica TP1020 tissue processor. The tissue was embedded and 5 μm sections cut on a microtome. For immunostaining, paraffin sections were deparaffinized and rehydrated, followed by treatment with antigen retrieval solution (Dako, #S1699). Sections were blocked using blocking buffer (1% BSA and 2% FCS in PBS) for 1 h at RT. Primary antibodies were diluted in blocking buffer and incubated for 90 min at RT followed by five PSB washes before 1 h incubation with secondary antibodies diluted in blocking buffer along with Hoechst or Draq5. Sections were washed with PBS five times and mounted using Mowiol. […]

[2] = test system: mouse ectocervical organoids; assay: Mouse ectocervical organoid culture: formation and expansion; type: cell-based; conditions: for formation and expansion of squamous stratified organoids from single ectocervical stem cells: Wnt3a and RSPO1 together present in culture medium, mouse; for effect of presence or absence of Wnt pathway activators on murine organoid culture: murine ectocervical organoid medium
Method: Cervical cells were cultured in ADF medium (Invitrogen, #12634) supplemented with 12 mM HEPES (Invitrogen, #15630-056), 1% GlutaMax (Invitrogen, #35050-038), 1% B27 (Invitrogen, #17504-044), 1% N2 (Invitrogen, #17502048), 50 ng/ml mouse epidermal growth factor (EGF) (Invitrogen, #PMG8043), 100 ng/ml mouse noggin (Peprotech, #250-38-100), 100 ng/ml human fibroblast growth factor (FGF)-10 (Peprotech, #100-26-25), 1.25 mM N-acetyl-L-cysteine (Sigma, #A9165-5G), 10 mM nicotinamide, (Sigma, #N0636), 2 μM TGF-β R Kinase Inhibitor IV (Calbiochem, #616454), 10 μM ROCK inhibitor (Y-27632) (Sigma, #Y0503), 1% penicillin/streptomycin (Gibco, #15140-122) with or without 25% Wnt3A- and 25% R-spondin1-conditioned medium, as described in Willert et al (46) and Farin et al (47).
as §1, §2

## C[C@H](NC(=O)Cc1cc(F)cc(F)c1)C(=O)N[C@@H]1C(=O)N(C)c2ccccc2-c2ccccc21 [DBZ]
[1]; grown in presence of γ-secretase inhibitor (Notch inhibition), FIG. 3H, 11D
  organoid growth (area of organoids): reduced organoid growth
[1]; presence of γ-secretase inhibitor, FIG. 3I
  proliferation of organoids (Ki67): reduces proliferation
[1]; presence of γ-secretase inhibitor, immunolabelling CDH1, Ki67, p63, FIG. 3I
  differentiation and stratification of organoids: failed to differentiate and stratify; also recorded: prevents differentiation

## Wnt3a
[2]
  formation and expansion of squamous stratified organoids from single ectocervical stem cells: detrimental
  effect of presence or absence of Wnt pathway activators on murine organoid culture: not to substantially effect
[1]
  formation and expansion of squamous stratified organoids from single ectocervical stem cells: detrimental

B1: RSPO1: Wnt agonist R-spondin 1, supplied as 25% conditioned medium (protein, UniProt Q2MKA7 21-263, looked up)
R-spondin-1: SRGIKGKRQRRISAEGSQACAKGCELCSEVNGCLKCSPKLFILLERNDIRQVGVCLPSCPPGYFDARNPDMNKCIKCKIEHCEACFSHNFCTKCKEGLYLHKGRCYPACPEGSSAANGTMECSSPAQCEMSEWSPWGPCSKKQQLCGFRRGSEERTRRVLHAPVGDHAACSDTKETRRCTVRRVPCPEGQKRRKGGQGRRENANRNLARKESKEAGAGSRRRKGQQQQQQQGTVGPLTSAGPA
modifications: conditioned medium
notes: Wnt agonist R-spondin 1, supplied as 25% conditioned medium
[2]
  formation and expansion of squamous stratified organoids from single ectocervical stem cells: detrimental
  effect of presence or absence of Wnt pathway activators on murine organoid culture: not to substantially effect
[1]
  formation and expansion of squamous stratified organoids from single ectocervical stem cells: detrimental
